Assay results reported in patent US12643879B2, “Functionalized heterocyclic compounds as modulators of stimulator of interferon genes (STING)” (RYVU THERAPEUTICS S.A., priority 2019, dated 2026).
Counter-ions that a name gives are not always drawn. Like-named read-outs stand apart in the source and are kept apart here.

Experiments:
[1] = tested on: interferon regulatory factor (IRF) pathway in THP-1 dual cells; assay: THP-1 Dual reporter assay, IRF pathway (luciferase); format: cell-based; conditions: Homo sapiens, THP1-Dual, read-out: THP1 Dual EC50 (μM) IRF
Experimental: (§1) Compounds of the present invention were tested for their activity using THP-1 dual cells (Invivogen, cat no. thpd-nfis) allowing for simultaneous study of NF-κB pathway and the interferon regulatory factor (IRF) pathway. THP-1 dual cells contain luciferase reporter gene under the control of an ISG54 (interferon-stimulated gene) minimal promoter in conjunction with five interferon-stimulated response elements and a secreted embryonic alkaline phosphatase reporter gene under the control an IFN (interferon)-β minimal promoter fused to five copies of the NF-κB consensus transcriptional response element with three copies of the c-Rel binding site. Following 18 h of stimulation with STING agonist, medium was collected and transferred onto fresh cell culture plate. To verify activity of the IRF pathway, luminescence activity was measured with standard laboratory plate reader immediately after addition 10 μl of the medium to 40 or 50 μl of luminescence reagent (Invivogen, cat. No. rep-qlc2). To verify activity of NF-κB pathway, 10 or 20 μl of the medium was mixed with 80 μl of a detection medium (Invivogen, cat. No. rep-qb2) and incubated for 1 or 2 hours at 37° C. in a humidified atmosphere containing 5% CO2. Next, absorbance at 630 or 655 nm was recorded using standard laboratory plate reader.

[2] = tested on: NF-κB pathway in THP-1 dual cells; assay: THP-1 Dual reporter assay, NF-κB pathway (SEAP); format: cell-based; conditions: Homo sapiens, THP1-Dual, read-out: THP1 Dual EC50 (μM) NFkB
Experimental: as §1

[3] = 18 h stimulation, absorbance at 630 or 655 nm

EC50 ([1]; 18 h stimulation, luminescence) | EC50 [2, 3] | SMILES | EC50 ([1]; 18 h) | EC50 ([2]; 18 h)
< 1 µM | 1 to 10 µM | Cc1cc(CN(Cc2cn(C3CC3)c3cc(N4CC[C@@H](O)C4)c(F)cc3c2=O)[C@H]2CCCN(c3noc(C)n3)C2)ccn1 [Example 48, 1-cyclopropyl-6-fluoro-7-[(3R)-3-hydroxypyrrolidin-1-yl]-3-({[(3S)-1-(5-methyl-1,2,4-oxadiazol-3-yl)piperidin-3-yl][(2-methylpyridin-4-yl)methyl]amino}methyl)-1,4-dihydroquinolin-4-one hydrochloride] | – | –
< 1 µM | < 1 µM | Cc1ccc(N2CCC[C@H](N(Cc3ccnc(C)c3)Cc3cn(C(C)C)c4cc(N5CC[C@@H](O)C5)ccc4c3=O)C2)cn1 [Example 52, 7-[(3R)-3-hydroxypyrrolidin-1-yl]-3-({[(3S)-1-(6-methylpyridin-3-yl)piperidin-3-yl][(2-methylpyridin-4-yl)methyl]amino}methyl)-1-(propan-2-yl)-1,4-dihydroquinolin-4-one] | – | –
< 1 µM | < 1 µM | Cc1ccc(N2CCC[C@H](N(Cc3ccnc(C)c3)Cc3cn(C(C)C)c4cc(N5CCN(CCO)CC5)ccc4c3=O)C2)cn1 [Example 53, 7-[4-(2-Hydroxyethyl)piperazin-1-yl]-3-({[(3S)-1-(6-methylpyridin-3-yl)piperidin-3-yl][(2-methylpyridin-4-yl)methyl]amino}methyl)-1-(propan-2-yl)-1,4-dihydroquinolin-4-one] | – | –
< 1 µM | < 1 µM | Cc1ccc(N2CCC[C@H](N(Cc3ccnc(C)c3)Cc3cn(C4CC4)c4cc(N5CC[C@@H](N(C)C(=O)CCOCCOCCOCCNC(=O)OC(C)(C)C)C5)c(F)cc4c3=O)C2)cn1 [Example 55C, tert-Butyl N-(2-{2-[2-(2-{[(3R)-1-[1-cyclopropyl-6-fluoro-3-({[(3S)-1-(6-methylpyridin-3-yl)piperidin-3-yl][(2-methylpyridin-4-yl)methyl]amino}methyl)-4-oxo-1,4-dihydroquinolin-7-yl]pyrrolidin-3-yl](methyl)carbamoyl}ethoxy)ethoxy]ethoxy}ethyl)carbamate] | – | –
< 1 µM | < 1 µM | Cc1ccc(N2CCC[C@H](N(Cc3ccnc(C)c3)Cc3cn(C4CC4)c4cc(-c5cnn(CCO)c5)c(F)cc4c3=O)C2)cn1 [Example 62, 1-Cyclopropyl-6-fluoro-7-[1-(2-hydroxyethyl)-1H-pyrazol 4-yl]-3-({[(3S)-1-(6-methylpyridin-3-yl)piperidin-3-yl][(2-methylpyridin-4-yl)methyl]amino}methyl)-1,4-dihydroquinolin-4-one] | – | –
< 1 µM | < 1 µM | Cc1ccc(N2CCC[C@H](N(Cc3ccnc(C)c3)Cc3cn(C4CC4)c4cc(-n5cnc(C(N)=O)c5)c(F)cc4c3=O)C2)cn1 [Example 64, 1-[1-Cyclopropyl-6-fluoro-3-({[(3S)-1-(6-methylpyridin-3-yl)piperidin-3-yl][(2-methylpyridin-4-yl)methyl]amino}methyl)-4-oxo-1,4-dihydroquinolin-7-yl]-1H-imidazole-4-carboxamide] | – | –
1 to 10 µM | 1 to 10 µM | Cc1cc(CN(Cc2cn(C(C)C)c3cc(N4CC[C@@H](O)C4)ccc3c2=O)[C@H]2CCCN(c3cn[nH]c3)C2)ccn1 [Example 69, 7-[(3R)-3-hydroxypyrrolidin-1-yl]-3-({[(2-methylpyridin-4-yl)methyl][(3S)-1-(1H-pyrazol-4-yl)piperidin-3-yl]amino}methyl)-1-(propan-2-yl)-1,4-dihydroquinolin-4-one] | – | –

Continued, molecule first:

SMILES | EC50 ([1]; 18 h stimulation, luminescence) | EC50 [2, 3] | EC50 ([1]; 18 h) | EC50 ([2]; 18 h)
Cc1ccc(N2CCC[C@H](N(Cc3ccnc(C)c3)Cc3cn(C4CC4)c4cc(OCCOC(=O)NCc5ccc(NC(=O)CCOCCOCCOCCNC(=O)OC(C)(C)C)cc5)c(F)cc4c3=O)C2)cn1 [Example 47B, 2-{[1-cyclopropyl-6-fluoro-3-({[(3S)-1-(6-methylpyridin-3-yl)piperidin-3-yl][(2-methylpyridin-4-yl)methyl]amino}methyl)-4-oxo-1,4-dihydroquinolin-7-yl]oxy}ethyl N-{[4-(3-{2-[2-(2-{[(tert-butoxy)carbonyl]amino}ethoxy)ethoxy]ethoxy}propanamido)phenyl]methyl}carbamate] | – | – | < 1 µM | < 1 µM
Cc1ccc(N2CCC[C@H](N(Cc3ccnc(C)c3)Cc3cn(C(C)C)c4cc(N5C[C@@H](O)[C@@H](O)C5)ccc4c3=O)C2)cn1 [Example 54, 7-[(3R,4S)-3,4-dihydroxypyrrolidin-1-yl]-3-({[(3S)-1-(6-methylpyridin-3-yl)piperidin-3-yl][(2-methylpyridin-4-yl)methyl]amino}methyl)-1-(propan-2-yl)-1,4-dihydroquinolin-4-one] | < 1 µM | 1 to 10 µM | – | –
C#CCOCCOCCOCCOCCOCCC(=O)Nc1ccc(COC(=O)N(C)[C@@H]2CCN(c3cc4c(cc3F)c(=O)c(CN(Cc3ccnc(C)c3)[C@H]3CCCN(c5ccc(C)nc5)C3)cn4C3CC3)C2)cc1 [Example 55A] | < 1 µM | < 1 µM | – | –
Cc1ccc(N2CCC[C@H](N(Cc3ccnc(C)c3)Cc3cn(C4CC4)c4cc(N5CC[C@@H](N(C)CCOCCOCCOCCOCCNC(=O)OC(C)(C)C)C5)c(F)cc4c3=O)C2)cn1 [Example 55B, tert-Butyl N-{2-[(3R)-1-[1-cyclopropyl-6-fluoro-3-({[(3S)-1-(6-methylpyridin-3-yl)piperidin-3-yl][(2-methylpyridin-4-yl)methyl]amino}methyl)-4-oxo-1,4-dihydroquinolin-7-yl]pyrrolidin-3-yl]-5,8,11,14-tetraoxa-2-azahexadecan-16-yl}carbamate] | < 1 µM | < 1 µM | – | –
Cc1ccc(N2CCC[C@H](N(Cc3ccnc(C)c3)Cc3cn(C4CC4)c4cc(N5CC[C@@H](N(C)C(=O)CCOCCOCCOCCN)C5)c(F)cc4c3=O)C2)cn1 [Example 55D, 3-{2-[2-(2-aminoethoxy)ethoxy]ethoxy}-N-[(3R)-1-[1-cyclopropyl-6-fluoro-3-({[(3S)-1-(6-methylpyridin-3-yl)piperidin-3-yl][(2-methylpyridin-4-yl)methyl]amino}methyl)-4-oxo-1,4-dihydroquinolin-7-yl]pyrrolidin-3-yl]-N-methylpropanamide formate] | 1 to 10 µM | 1 to 10 µM | – | –
C#CCOCCOCCOCCOCCOCCC(=O)Nc1ccc(COC(=O)N(C)[C@H]2CCN(c3cc4c(cc3F)c(=O)c(CN(Cc3ccnc(C)c3)[C@H]3CCCN(c5ccc(C)nc5)C3)cn4C3CC3)C2)cc1 [Example 58A, [4-(4,7,10,13,16-pentaoxanonadec-18-ynamido)phenyl]methyl N-[(3S)-1-[1-cyclopropyl-6-fluoro-3-({[(3S)-1-(6-methylpyridin-3-yl)piperidin-3-yl][(2-methylpyridin-4-yl)methyl]amino}methyl)-4-oxo-1,4-dihydroquinolin-7-yl]pyrrolidin-3-yl]-N-methylcarbamate] | < 1 µM | < 1 µM | – | –
Cc1cc(CN(Cc2cn(C(C)C)c3cc(N4CC[C@@H](O)C4)ccc3c2=O)[C@H]2CCCN(c3cncnc3)C2)ccn1 [Example 59, 7-[(3R)-3-Hydroxypyrrolidin-1-yl]-3-({[(2-methylpyridin-4-yl)methyl][(3S)-1-(pyrimidin-5-yl)piperidin-3-yl]amino}methyl)-1-(propan-2-yl)-1,4-dihydroquinolin-4-one] | > 10 µM | > 10 µM | – | –
COc1cc(CN(Cc2cn(C3CC3)c3cc(N4CC[C@@H](O)C4)c(F)cc3c2=O)[C@H]2CCCN(c3cccnc3)C2)ccn1 [Example 65, 1-cyclopropyl-6-fluoro-7-[(3R)-3-hydroxypyrrolidin-1-yl]-3-({[(2-methoxypyridin-4-yl)methyl][(3S)-1-(pyridin-3-yl)piperidin-3-yl]amino}methyl)-1,4-dihydroquinolin-4-one hydrochloride] | – | – | < 1 µM | < 1 µM
Cc1ccc(N2CCC[C@H](N(Cc3ccnc(C)c3)Cc3cn(C4CC4)c4cc(N5CCC6C(CCN6C(=O)OCc6ccc(NC(=O)[C@H](CCCNC(N)=O)NC(=O)[C@@H](NC(=O)CCOCCOCCOCCN=[N+]=[N-])C(C)C)cc6)C5)c(F)cc4c3=O)C2)cn1 (stereo partly drawn) [Example 68A, {4-[(2S)-2-[(2S)-2-(3-{2-[2-(2-azidoethoxy)ethoxy]ethoxy}propanamido)-3-methyl-butanamido]-5-(carbamoylamino)pentanamido]phenyl}methyl 5-[1-cyclopropyl-6-fluoro-3-({[(3S)-1-(6-methylpyridin-3-yl)piperidin-3-yl][(2-methylpyridin-4-yl)methyl]amino}methyl)-4-oxo-1,4-dihydroquinolin-7-yl]-octahydro-1H-pyrrolo[3,2-c]pyridine-1-carboxylate] | 1 to 10 µM | > 10 µM | – | –
Cc1ccc(N2CCC[C@H](N(Cc3ccnc(C)c3)Cc3cn(C4CC4)c4cc(N5CCN(CCO)CC5)c(F)cc4c3=O)C2)cn1 [Example 70, 1-cyclopropyl-6-fluoro-7-[4-(2-hydroxyethyl)piperazin-1-yl]-3-({[(3S)-1-(6-methylpyridin-3-yl)piperidin-3-yl][(2-methylpyridin-4-yl)methyl]amino}methyl)-1,4-dihydroquinolin-4-one] | < 1 µM | < 1 µM | – | –
